Measurements as given in patent US9427426B2 (priority 2008, dated 2016).
Several values for one entry are separate records, joined by “and”; a condition that tells them apart may be missing. Identical values can stand only once.

Experiments:
[1] = tested on: rats intoxicated with lead (lead acetate); assay: Example 5: erdosteine prophylaxis per os plus i.v. treatment in lead intoxication; format: in vivo, rats Wistar; set-up: RBC / ALT / Hct / MCH / Hb / WBC / Urea / Uric acid / AST: unit not given here
Procedure: The experiment has been structured for subjects that at a certain moment might be at higher risk to be intoxicated, for professional or other reasons. After intoxication the animals have been treated i.v.
Experiment has been carried out in parallel with example 3. Whatever not specified is identical with example 3.
Lot 14 One lot of 30 rats Wistar (15 males and 15 females) have been introduced in the experiment.
At day −2, day −1 and day 0 the animals have been administered 300 mg/kg erdosteine per os. At day 0, four hours after administration of erdosteine, the animals have been intoxicated with lead as described in example 3. After lead intoxications animals have been treated with erdosteine 350 mg/kg with the same protocol as described in example 3. […] Results have been compared with lot 2 since the experiments were carried out in parallel and results can be compared.

[2] = tested on: rat intoxicated with lead (lead acetate); assay: Example 3: erdosteine i.v. vs BAL+EDTA (TT) and association in rats intoxicated with lead; details: erdosteine 350 mg/kg i.v.
Description: The animals have been randomly divided in 6 lots.
2. […] Dosage administered is similar to the maximum possible dosage in man.
4. Erdosteine has been administered first, immediately after intoxication, followed rapidly by BAL and then EDTA by more operators in sequence, in order to simulate the situation in man when it is possible to administer i.v. in perfusion and at the same time i.m.
Mortality has been recorded. […] After 7 days urine have been taken through trans-vesica punction.
Analysis of mortality have been made using Chi square test.
Results with p<0.05 have been considered statistically significant.
Biochemical tests have been made with Refloton 2000, hematological tests with Hemastar 4, urine summary with Urilux, Pb in urine with GC-MS Varian

[3] = tested on: rats intoxicated with paracetamol; assay: Example 4: erdosteine i.v. vs NAC i.v. in rats intoxicated with paracetamol; format: in vivo, Wistar rats
Description: Experiment has been carried on in parallel with experiment of example 3 and results of animals not intoxicated not treated (lot1) have been used as reference.
(§1) 3. […] NAC has been dissolved in bidistilled water.
Animals have been monitored as described in example 3.
Mortality has been recorded.

[4] = tested on: rats intoxicated with lead (lead acetate); assay: Example 2: erdosteine i.v. vs NAC i.v. in rats intoxicated with lead; format: in vivo, Wistar rats; details: for Mortalitaty total / Mortality in percent: Pb intoxicated (lead acetate 4665 mg/kg per os), 35 animals/lot; for Anatomical pathology: lesions / Pb in urine, Pb mean values / Creatinine mean values / Haematocrit mean values / Haemoglobin mean values / Leucocytes mean values / Urea mean values / Uric acid mean value / erythrocytes mean values: Pb intoxicated; for Creatinine mean values / Haematocrit mean values / Haemoglobin mean values / Leucocytes mean values / Urea mean values / Uric acid mean value / erythrocytes mean values: survivors after 7 days
Procedure: The animals have been randomly divided in 11 lots.
as §1
4. […] Erdosteine has been solubilized in bidistilled water and sodium hydrogen carbonate equimolar, the resulting solution being administered in volume of 10 ml/kg. Preliminarily we tested the different molar ratios erdosteine/sodium hydrogen carbonate in a range between 0.5:1 and 1.5:1 and the volume to be solubilized. […] Animals Monitoring:
Mortality has been recorded. […] Few animals have been collected urine eliminated spontaneously for Pb—Hg analysis. Animals have been sacrificed under general anesthesia with ether. 6 animals of each group (3 males and 3 females) have been randomly selected for macroscopic and microscopic anatomic-pathological examination.

[5] = lot 14: erdosteine 300 mg/kg per os at day -2, -1, 0, then lead acetate 4665 mg/kg per os and erdosteine 350 mg/kg i.v. once a day for 7 days, 30 rats
[6] = lot 14 survivors day 7, prophylaxis per os + Pb intoxication + erdosteine 350 mg/kg i.v.
[7] = lot 14 day 0 before intoxication, after erdosteine 300 mg/kg per os at day -2, -1, 0
[8] = Pb intoxicated (lead acetate 4665 mg/kg per os), BAL 25.2 mg/kg + EDTA 30 mg/kg i.m. (TT) or both, once a day for 7 days, 30 animals/lot
[9] = survivors after 7 days, Pb intoxicated, TT (BAL+EDTA i.m.) or both
[10] = survivors after 7 days, Pb intoxicated, TT (BAL+EDTA i.m.) or both, listed as Erdosteine
[11] = urine at the end of period (7 days), Pb intoxicated, TT or both
[12] = paracetamol […] per os, erdosteine 350 mg/kg i.v. or NAC 114 mg/kg i.v. once a day for 7 days, 30 animals/lot
[13] = paracetamol intoxicated, erdosteine 350 mg/kg i.v. or NAC 114 mg/kg i.v., 7 days
[14] = survivors at 7 days, paracetamol intoxicated, erdosteine 350 mg/kg i.v. or NAC 114 mg/kg i.v.
[15] = ERDO1 = erdosteine 350 mg/kg i.v. or NAC 114 mg/kg i.v. once a day for 7 days
[16] = ERDO2 = erdosteine 175 mg/kg i.v. once a day for 7 days
[17] = ERDO1 = erdosteine 350 mg/kg i.v. or NAC 114 mg/kg i.v. once a day
[18] = ERDO2 = erdosteine 175 mg/kg i.v. once a day

Structure (SMILES): O=C(O)CSCC(=O)NC1CCSC1=O (stereo not drawn) [erdosteine, Erdosteine]
- Mortality % [1, 5]: 20%
- Total mortality [1, 5]: 6/30 ^2
- ALT [1, 6]: 165.4^1,2
- AST [1, 6]: 48.9^1,2
- Hb [1, 6]: 17.12
- Hct [1, 6]: 43.81
- MCH [1, 6]: 23.12
- PLT [1, 6]: 605
- RBC [1, 6]: 7.446
- Urea [1, 6]: 62.2^1,2
- Uric acid [1, 6]: 2.71
- WBC [1, 6]: 6.98
- ALT [1, 7]: 166.2
- AST [1, 7]: 36.2
- Hb [1, 7]: 19.96
- Hct [1, 7]: 47.45
- MCH [1, 7]: 25.12
- PLT [1, 7]: 793
- RBC [1, 7]: 7.93
- Urea [1, 7]: 54.86
- Uric acid [1, 7]: 1.95
- WBC [1, 7]: 4.90
- Mortality % [2, 8]: 37%
- Total mortality [2, 8]: 11/30 and 11/30 ^1
- Renal aggression (urine summary), in words ([2]; Pb intoxicated, TT or both): improvement compared with TT
- Pb in urine of survivors at the end of period, mean values ([2]; Pb intoxicated, TT or both, once a day for 7 days): 164.6 mg/L
- ALT [2, 9]: 159^2
- AST [2, 9]: 57.2^3
- Hb [2, 9]: 16.98
- Hct [2, 9]: 42.9
- MCH [2, 9]: 23.46
- PLT [2, 9]: 574
- RBC [2, 9]: 7.156
- Urea [2, 9]: 69.4^3
- Uric acid [2, 9]: 2.632
- WBC [2, 9]: 6.16
- ALT [2, 10]: 159^2,3
- AST [2, 10]: 57.2
- Hb [2, 10]: 16.98^3
- PLT [2, 10]: 574^3
- RBC [2, 10]: 7.156^1,3
- Urea [2, 10]: 68.4
- WBC [2, 10]: 6.16^3
- Urine summary: Bil. [2, 11]: 3 mg/dL
- Urine summary: Chet [2, 11]: 10 mg/dL
- Urine summary: Density [2, 11]: 1020
- Urine summary: Erythrocyte [2, 11]: 100 µL⁻¹
- Urine summary: Glucose [2, 11]: 50 mg/dL
- Urine summary: Leuc [2, 11]: 28 µL⁻¹
- Urine summary: Prot. [2, 11]: 90 mg/dL
- Urine summary: UBG [2, 11]: 1 mg/dL
- Urine summary: pH [2, 11]: 6.5
- Mortality percentual [3, 12]: 27%
- Total mortality [3, 12]: 8/30
- Renal aggression (urine summary), in words ([3]; paracetamol intoxicated, erdosteine 350 mg/kg i.v. or NAC 114 mg/kg i.v.): antagonized
- Urine summary: Bil. [3, 13]: 1 mg/dL
- Urine summary: Chet [3, 13]: neg
- Urine summary: Density [3, 13]: 1020
- Urine summary: Erythrocyte [3, 13]: 25 µL⁻¹
- Urine summary: Glucose [3, 13]: neg
- Urine summary: Leuc [3, 13]: 10 µL⁻¹
- Urine summary: Prot. [3, 13]: 50 mg/dL
- Urine summary: UBG [3, 13]: 1 mg/dL
- Urine summary: pH [3, 13]: 7
- ALT [3, 14]: 165.4^2,3
- AST [3, 14]: 45.2^2
- HCT [3, 14]: 42.9^1
- PLT [3, 14]: 749.8^2,3
- RBC [3, 14]: 7.45^1
- Urea [3, 14]: 55.2^2,3
- Uric acid [3, 14]: 1.934^2,3
- Mortalitaty total [4, 15]: 5 ^1, 2
- Mortality in percent [4, 15]: 14.3%
- Mortalitaty total [4, 16]: 10 ^1, 2
- Mortality in percent [4, 16]: 28.6%
- Anatomical pathology: lesions [4, 15]: less important damages
- Pb in urine, Pb mean values [4, 15]: 15.9 mg/L
- Anatomical pathology: lesions [4, 16]: did not improve lesions
- Pb in urine, Pb mean values [4, 16]: 13 mg/L
- Creatinine mean values [4, 17]: 0.49 ^1, 2 mK/dl
- Haematocrit mean values [4, 17]: 37.21 ^3
- Haemoglobin mean values [4, 17]: 15.71 ^3 g/dl
- Leucocytes mean values [4, 17]: 11.36 ^3
- Urea mean values [4, 17]: 48.95 ^1, 2, 3 mg/dl
- Uric acid mean value [4, 17]: 2.28 ^4 mg/dl
- erythrocytes mean values [4, 17]: 7.01 ^3 *10^6/mm^3
- Creatinine mean values [4, 18]: 0.46 ^1, 2 mK/dl
- Haematocrit mean values [4, 18]: 37.7 ^3
- Haemoglobin mean values [4, 18]: 15.95 ^3 g/dl
- Leucocytes mean values [4, 18]: 14.35 ^3
- Urea mean values [4, 18]: 54.4 ^1, 2 mg/dl
- Uric acid mean value [4, 18]: 1.76 ^1, 2 mg/dl
- erythrocytes mean values [4, 18]: 7.07 ^3 *10^6/mm^3
